In patent publication US9723842B2, “Isothiazolinone biocides enhanced by zinc ions” (ARCH CHEMICALS, INC., priority 2006, dated 2017):
Like-named read-outs stand apart in the source and are kept apart here.

Test system: Ps. aeruginosa
Experiment: Minimum inhibitory concentration against mono-cultures (microtitre plate, doubling dilutions)
Format: cell-based, Pseudomonas aeruginosa (NCIB 10421)
Conditions: for MIC: Pseudomonas aeruginosa
Procedure: Pseudomonas aeruginosa (NCIB 10421) maintained on nutrient agar, were used to study the synergy between BIT and ZnCl2. Bacteria were grown to stationary phase (approximately 24 hours) in nutrient broth (approximately 10^9 organisms per ml). A 0.1% (v/v) inoculum was used to seed fresh medium and 100 μl of the inoculum was then added to each well of a microtitre plate, except for the first well which contained 200 μl. Using doubling dilutions, the concentration of the compounds under investigation were varied in each well along the ordinate axis. The presence or absence of growth was recorded by visual inspection after 24 hours incubation at 37° C. Bacteria were grown to stationary phase (approximately 24 hours) in nutrient broth (approximately 10^9 organisms per ml). A 0.1% (v/v) inoculum was used to seed fresh medium and 100 μl of the inoculum was then added to each well of a microtitre plate, except for the first well which contained 200 μl. Using doubling dilutions, the concentration of the compounds under investigation were varied in each well along the ordinate axis. The presence or absence of growth was recorded by visual inspection after 24 hours incubation at 37° C.

[1] = Comparative Example A, Table 10

| SMILES | MIC (ppm) against Ps. aeruginosa (Example 2, Table 2, column 1) | MIC (ppm) against Ps. aeruginosa (Example 2, Table 2, column 2) | MIC (ppm) against Ps. aeruginosa (Example 2, Table 2, column 3) | MIC (ppm) against Ps. aeruginosa (Example 2, Table 2, column 4) | MIC (ppm) against Ps. aeruginosa (Example 5, Table 8, column 1) | MIC (ppm) against Ps. aeruginosa (Example 5, Table 8, column 2) | MIC (ppm) against Ps. aeruginosa (Example 5, Table 8, column 3) | MIC (ppm) against Ps. aeruginosa (Example 5, Table 8, column 4) | MIC (ppm) against Ps. aeruginosa [1] | also measured |
| --- | --- | --- | --- | --- | --- | --- | --- | --- | --- | --- |
| [Cl-].[Cl-].[Zn+2] [ZnCl2, zinc chloride] | 300 ppm | 450 ppm | 375 ppm | 450 ppm | 525 ppm | 525 ppm | 600 ppm | 600 ppm | – | MIC (ppm) against Ps. aeruginosa (Example 3, Table 4, column 1): 294 ppm; MIC (ppm) against Ps. aeruginosa (Example 3, Table 4, column 2): 294 ppm; MIC (ppm) against Ps. aeruginosa (Example 3, Table 4, column 3): 210 ppm; MIC (ppm) against Ps. aeruginosa (Example 3, Table 4, column 4): 600 ppm; MIC (ppm) against Ps. aeruginosa (Example 4, Table 6, column 1): 210 ppm; MIC (ppm) against Ps. aeruginosa (Example 4, Table 6, column 2): 210 ppm; MIC (ppm) against Ps. aeruginosa (Example 4, Table 6, column 3): 450 ppm; MIC (ppm) against Ps. aeruginosa (Example 4, Table 6, column 4): 450 ppm |
| O=c1[nH]sc2ccccc12 [BIT, 1,2-benzisothiazolin-3-one] | 30 ppm | 42 ppm | 42 ppm | 30 ppm | – | – | – | – | 30 ppm | – |
| [Cl-].[Na+] [NaCl2, Sodium Chloride] | – | – | – | – | – | – | – | – | None detected (greater than 675) ppm | – |
| CCCCn1sc2ccccc2c1=O [BBIT, N-(n-butyl)-1,2-benzisothiazolin-3-one] | – | – | – | – | 315 ppm | 360 ppm | 42 ppm | 180 ppm | – | – |
| Cn1sccc1=O [MIT, 2-methyl-4-isothiazolin-3-one] | – | – | – | – | – | – | – | – | – | MIC (read-out: MIC (ppm) against Ps. aeruginosa, Example 4, Table 6, column 1): 9 µg/mL; MIC (read-out: MIC (ppm) against Ps. aeruginosa, Example 4, Table 6, column 2): 6 µg/mL; MIC (read-out: MIC (ppm) against Ps. aeruginosa, Example 4, Table 6, column 3): 10.5 µg/mL; MIC (read-out: MIC (ppm) against Ps. aeruginosa, Example 4, Table 6, column 4): 8 µg/mL |
